From patent publication US10406120B2, “Methods and compositions for treating kidney disorders” (Golden Biotechnology Corporation, priority 2013, dated 2019)

Legend:
Nrf2 = assay: AcP-IgAN model: renal Nrf2 mRNA and protein; type: in vivo, B cell-deficient mice; details: AcP-IgAN mice, day 3 until day 28, vs control AcP-IgAN mice
Description: (§1) B cell-deficient mice (B6.129S2-Igh-6tm1Cgn/J) were obtained from the Academia Sinica (Professor John T. Kung, Institute of Molecular Biology), and maintained at the animal center of the National Defense Medical Center, Taipei, Taiwan. AcP-IgAN was induced in the mice by daily injection of purified IgA anti-phosphorylcholine antibodies and pneumococcal C-polysaccharide (PnC) as described previously (Chao, et al., Kidney Int. 70:283-297; 2006). All animal experiments were performed with the approval of the Institutional Animal Care and Use Committee of The National Defense Medical Center, Taiwan, and were consistent with the NIH Guide for the Care and Use of Laboratory Animals.
Nuclear proteins were extracted using a nuclear extract kit (Active Motif, Japan). Phospho-NF-κB p65 and nuclear factor-erythroid-2-related factor 2 (NrF2) were measured in renal tissue nuclear protein extracts using Trans-AM ELISA assay kits (Active Motif), according to the manufacturer's instructions. Renal cytosolic protein extracts using RIPA buffer (Cell signaling). Cytosolic glutathione peroxidase (GPx) (Cayman, Mich.) and cytosolic heme oxygenase-1 (HO-1) (Enzo Life Sciences, NY) were measured using commercial ELISA kits according to the manufacturer's instructions. Both were expressed relative to the protein concentration in the lysate. […]

IL-6 = assay: FSGS model: renal IL-6 (IHC); type: in vivo, BALB/c mice; details: FSGS mice, vs control FSGS mice
Description: (§2) Experiments described herein were performed on 8-week-old female BALB/c mice. The FSGS mice were injected intravenously with a single dose of adriamycin (0.1 mg/10 g body weight). The mice were given Compound 1 six hours before adriamycin injection by gavage daily till sacrifice. BALB/c mice intraperitoneal injected with normal saline were used as normal controls, while ASLN mice given vehicle (corn oil) by gavage were used as disease controls. Mice were killed at day 7, 14, or 21 after disease induction, and spleen, renal cortical tissue, and blood samples collected and stored appropriately until analysis. […]
(§3) For IHC, formalin-fixed and paraffin-embedded renal sections were prepared and incubated with primary antibodies against mouse Desmin (Lab Vision, CA, USA), CD3 (pan-T cell; Serotec, N.C., USA), F4/80 (monocytes/macrophages; Serotec), IL-6 (R&D Systems, MN, USA), NF-κB p65 (Cell Signaling Technology, MA, USA), collagen I, III, and IV (Southern Biotech, AL, USA), or TGF-β1 (Santa Cruz Biotechnology, CA, USA), biotinylated second antibodies (Dako, Glostrup, Denmark), and avidin-biotin-peroxidase complex (Dako). Semi-quantitative evaluation of staining was performed.

NO = assay: FSGS model: NO determination; type: in vivo, BALB/c mice; details: FSGS mice
Description: (§4) Experiments described herein were performed on 8-week-old female BALB/c mice. The FSGS mice were injected intravenously with a single dose of adriamycin (0.1 mg/10 g body weight). The mice were given Compound 1 six hours before adriamycin injection by gavage daily till sacrifice. BALB/c mice intraperitoneal injected with normal saline were used as normal controls, while ASLN mice given vehicle (corn oil) by gavage were used as disease controls. Mice were killed at day 7, 14, or 21 after disease induction, and spleen, renal cortical tissue, and blood samples collected and stored appropriately until analysis. All animal experiments were performed with the ethical approval of the Institutional Animal Care and Use Committee of The National Defense Medical Center, Taiwan and performed according to the ethical rules in the NIH Guide for the Care and Use of Laboratory Animals.
NO levels in serum were detected with NO Detection kit (iNtRON Biotechnology, Seongnam, Korea), based on diazotization (Griess method), according to the manufacturer's instructions.

desmin = assay: FSGS model: podocyte injury, desmin IHC; type: in vivo, BALB/c mice; details: FSGS mice
Description: as §2, §3

TGF-β1 = assay: FSGS model: TGF-β1 in serum and kidney (ELISA, IHC); type: in vivo, BALB/c mice; details: FSGS mice
Description: as §4, §3
The TGF-β1 protein levels in serum and renal tissue were measured using the commercial ELISA kits (R&D Systems), according to the manufacturer's instructions. Samples were acidified with 1 N HCl and neutralized with 1.2 N NaOH/0.5 M HEPES to assay for the amount of TGF-β1.

[1] = AcP-IgAN model: renal histopathology; type: in vivo, B cell-deficient mice; details: AcP-IgAN mice
Description: as §1
For renal histopathology, the tissues were fixed in 10% buffered formalin and embedded in paraffin, and then sections (4 μm) were prepared and stained with hematoxylin and eosin (H&E). The proportion of glomeruli showing proliferation, crescent formation, sclerosis, or peri-glomerular inflammation was counted in 50 randomly sampled glomeruli by light microscopy at the magnification of 400×.

mononuclear leukocytes = assay: AcP-IgAN model: leukocyte infiltration in the kidney (IF/IHC); type: in vivo, B cell-deficient mice; details: AcP-IgAN mice
Description: as §1
For IHC, formalin fixed and paraffin embedded tissue sections or frozen sections were incubated with against IL-6 (R&D Systems, MN), MCP-1 (Santa Cruz, Calif.), F4/80 (monocytes/macrophages; Serotec, N.C.), collagen IV (Southern Biotech, AL), TGF-β1 (Santa Cruz), phopsho-NFκB p65 (Cell Signaling, MA), CD3 (pan-T cell; Serotec), CD4 (T helper cell; BioLegend, CA), CD8 (cytotoxic T cell), CD11b (macrophages/neutrophils), or CD11c (dendritic cells) (BD Biosciences, CA) antibodies. The FITC-conjugated, Alexa Fluor 488-conjugated (Invitrogen, CA) or horseradish peroxidase (HRP) conjugated secondary antibodies (DAKO, Denmark) were then applied to the sections. […]

NF-κB p65 = assay: FSGS model: renal NF-κB activation (IHC, ELISA); type: in vivo, BALB/c mice; details: FSGS mice
Description: as §4, §3
Nuclear proteins were extracted using a nuclear extract kit (Active Motif, Japan). Phospho-NF-κB p65 and nuclear factor-erythroid-2-related factor 2 (NrF2) were measured in renal tissue nuclear protein extracts using Trans-AM ELISA assay kits (Active Motif), according to the manufacturer's instructions. Renal cytosolic protein extracts using RIPA buffer (Cell signaling). Cytosolic glutathione peroxidase (GPx) (Cayman, Mich.) and cytosolic heme oxygenase-1 (HO-1) (Enzo Life Sciences, NY) were measured using commercial ELISA kits according to the manufacturer's instructions. Both were expressed relative to the protein concentration in the lysate.

[2] = day 14 and day 21, vs control FSGS mice

SMILES: COC1=C(OC)[C@H](O)[C@H](C/C=C(\C)CC/C=C(\C)CCC=C(C)C)[C@@H](C)C1=O [Compound 1, Antroquinonol]
- renal expression levels of mRNA of Nrf2 (Nrf2): greatly increased
- renal expression levels of protein of Nrf2 (Nrf2): greatly increased
- renal protein expression levels of IL-6 (IHC) (IL-6): significantly reduced
- urine levels of NO (NO; day 7, among normal control, FSGS+vehicle and FSGS+antroq mice): no detectable difference
- serum NO levels (NO; day 7 to day 21, vs control FSGS mice): significantly suppressed
- urine NO levels (NO; day 14 to day 21, vs control FSGS mice): effectively blunted
- expression of desmin (IHC) (desmin; day 21, compared to normal control mice): mild desmin expression levels
- expression of desmin (IHC) (desmin; days 14 and 21, vs control FSGS mice): significantly reduced
- TGF-β1 protein levels in kidney (ELISA) (TGF-β1; [2]): greatly abrogated
- TGF-β1 protein levels in serum (ELISA) (TGF-β1; [2]): greatly abrogated
- TGF-β1 protein expression in the kidney (IHC) (TGF-β1; vs control FSGS mice): significantly lower
- renal histopathology ([1]; day 3, vs control AcP-IgAN mice): significantly inhibited
- renal lesions (proliferation, crescents, sclerosis, peri-glomerular leukocyte infiltration, tubular atrophy; except glomerular immune deposits) ([1]; day 28, vs control AcP-IgAN mice): substantially inhibited
- infiltration of pan-T cells, neutrophils and monocytes/macrophages in the kidney (mononuclear leukocytes; day 3): no detectable signals
- infiltration of inflammatory cells (CD3^+, CD4^+, CD8^+, CD11c+, F4/80+, CD11b+) in the kidney (mononuclear leukocytes; day 28, vs AcP-IgAN mice): significantly decreased infiltration
- nuclear protein expression of NF-κB p65 (ELISA, renal nuclear extracts) (NF-κB p65; day 7): no significant difference
- nuclear protein expression of NF-κB p65 (ELISA, renal nuclear extracts) (NF-κB p65; day 14): slightly blocked
- NF-κB activation, nuclear NF-κB p65 expression (IHC) (NF-κB p65; [2]): markedly inhibited
- nuclear protein expression of NF-κB p65 (ELISA, renal nuclear extracts) (NF-κB p65; day 21): significantly inhibited
